The source of these data is patent publication US10487068B2, “Pyridazine derivatives as RORc modulators” (Genentech, Inc., priority 2015, dated 2019).

The test concerns the target T1, RORc ligand binding domain (Homo sapiens, UniProt P51449).
T1 sequence (P51449 269-508 limits assumed): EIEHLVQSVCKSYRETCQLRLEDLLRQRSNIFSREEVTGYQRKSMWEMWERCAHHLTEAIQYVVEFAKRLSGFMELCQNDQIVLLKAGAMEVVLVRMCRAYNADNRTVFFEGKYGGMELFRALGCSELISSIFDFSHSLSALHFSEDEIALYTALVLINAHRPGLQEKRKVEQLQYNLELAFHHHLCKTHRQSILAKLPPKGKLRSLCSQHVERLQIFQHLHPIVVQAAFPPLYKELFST
In words: In Vitro RORc Ligand Binding Assay. To be noted: RORc IC50, radioligand 25-[3H]hydroxycholesterol 6 nM; 0.6 ug/mL RORc receptor; 3 h at 25° C.

As a reminder, the IC50 is the concentration needed to halve the response being measured. Read a high IC50 as weaker potency. As to `CC1(C)[C@@H]2CC[C@@]1(c1cccc(C(=O)NCCO)n1)c1nnc(-c3c(F)cccc3F)cc12` [Example 99, 6-((5S,8R)-3-(2,6-difluorophenyl)-9,9-dimethyl-5,6,7,8-tetrahydro-5,8-methanocinnolin-8-yl)-N-(2-hydroxyethyl)picolinamide], the IC50 is 40.9 nM.
Then `C[C@H](O)CNC(=O)c1cccc([C@]23CC[C@H](c4cc(-c5c(F)cccc5F)nnc42)C3(C)C)n1` [Example 100, 6-((5S,8R)-3-(2,6-difluorophenyl)-9,9-dimethyl-5,6,7,8-tetrahydro-5,8-methanocinnolin-8-yl)-N-((S)-2-hydroxypropyl)picolinamide], with 41.3 nM; and `CC(=O)Nc1cccc([C@@]23CC[C@@H](c4cc(-c5c(F)cccc5F)nnc42)C3(C)C)n1` [Example 101, N-(6-((5R,8S)-3-(2,6-difluorophenyl)-9,9-dimethyl-5,6,7,8-tetrahydro-5,8-methanocinnolin-8-yl)pyridin-2-yl)acetamide], with 21.9 nM.
Then `Cc1nnc(-c2cccc([C@@]34CC[C@@H](c5cc(-c6c(F)cccc6F)nnc53)C4(C)C)n2)o1` [Example 102, 2-(6-((5R,8S)-3-(2,6-difluorophenyl)-9,9-dimethyl-5,6,7,8-tetrahydro-5,8-methanocinnolin-8-yl)pyridin-2-yl)-5-methyl-1,3,4-oxadiazole], with 21.6 nM.
Then `CC1(C)[C@H]2CC[C@]1(c1cncc(NC(=O)C3COC3)n1)c1nnc(-c3c(F)cccc3F)cc12` [Example 103, N-(6-((5R,8S)-3-(2,6-difluorophenyl)-9,9-dimethyl-5,6,7,8-tetrahydro-5,8-methanocinnolin-8-yl)pyrazin-2-yl)oxetane-3-carboxamide], with 29.1 nM; and `CC1(C)[C@H]2CC[C@]1(c1cncc(-c3nnc[nH]3)n1)c1nnc(-c3c(F)cccc3F)cc12` [Example 104], with 25.9 nM; and `Cc1nnc(-c2cncc([C@@]34CC[C@@H](c5cc(-c6c(F)cccc6F)nnc53)C4(C)C)n2)[nH]1` [Example 105], with 30.9 nM.
In turn, `CC1(C)[C@H]2CC[C@]1(c1cncc(C(=O)NCC3(O)COC3)n1)c1nnc(-c3c(F)cccc3F)cc12` [Example 106, 6-((5R,8S)-3-(2,6-difluorophenyl)-9,9-dimethyl-5,6,7,8-tetrahydro-5,8-methanocinnolin-8-yl)-N-((3-hydroxyoxetan-3-yl)methyl)pyrazine-2-carboxamide] had an IC50 of 31.1 nM.
As for `CC1(C)[C@H]2CC[C@]1(c1cncc(C(=O)NC[C@@H](O)CO)n1)c1nnc(-c3c(F)cccc3F)cc12` [Example 107, 6-((5R,8S)-3-(2,6-difluorophenyl)-9,9-dimethyl-5,6,7,8-tetrahydro-5,8-methanocinnolin-8-yl)-N-((R)-2,3-dihydroxypropyl)pyrazine-2-carboxamide], the figure is 69.5 nM; as for `CC1(C)[C@H]2CC[C@]1(c1cncc(C(=O)NC[C@H](O)CO)n1)c1nnc(-c3c(F)cccc3F)cc12` [Example 108, 6-((5R,8S)-3-(2,6-difluorophenyl)-9,9-dimethyl-5,6,7,8-tetrahydro-5,8-methanocinnolin-8-yl)-N-((S)-2,3-dihydroxypropyl)pyrazine-2-carboxamide], 47.5 nM; as for `C[C@@H](O)CNC(=O)c1cncc([C@]23CC[C@H](c4cc(-c5c(F)cccc5F)nnc42)C3(C)C)n1` [Example 109, 6-((5S,8R)-3-(2,6-difluorophenyl)-9,9-dimethyl-5,6,7,8-tetrahydro-5,8-methanocinnolin-8-yl)-N-((R)-2-hydroxypropyl)pyrazine-2-carboxamide], 19.8 nM.
`CC1(C)[C@H]2CC[C@]1(c1cncc(C(=O)NCCS(C)(=O)=O)n1)c1nnc(-c3c(F)cccc3F)cc12` [Example 110, 6-((5R,8S)-3-(2,6-difluorophenyl)-9.9-dimethyl-5,6,7,8-tetrahydro-5,8-methanocinnolin-8-yl)-N-(2-(methylsulfonyl)ethyl)pyrazine-2-carboxamide] came in with an IC50 of 51.4 nM.
As for `CC1(C)[C@H]2CC[C@]1(c1ccnc(NS(C)(=O)=O)n1)c1nnc(-c3c(F)cccc3F)cc12` [Example 111], the IC50 came out at 41.4 nM. This IC50 and that of the compound before are within 1.5-fold of each other.
As for `CC1(C)[C@H]2CC[C@]1(c1cccc(NC(=O)CO)n1)c1nnc(-c3c(F)cccc3F)cc12` [Example 112, N-(6-((5R,8S)-3-(2,6-difluorophenyl)-9,9-dimethyl-5,6,7,8-tetrahydro-5,8-methanocinnolin-8-yl)pyridin-2-yl)-2-hydroxyacetamide], the figure is 13.7 nM; as for `CC1(C)[C@H]2CC[C@]1(c1ccnc(C(N)=O)n1)c1nnc(-c3c(F)cccc3F)cc12` [Example 113], 27.6 nM.
Compound `C[C@H](O)CNC(=O)c1nccc([C@@]23CC[C@@H](c4cc(-c5c(F)cccc5F)nnc42)C3(C)C)n1` [Example 114] came in with a half-maximal inhibitory concentration (IC50) of 38.8 nM.
Then `C[C@@H](O)CNC(=O)c1nccc([C@@]23CC[C@@H](c4cc(-c5c(F)cccc5F)nnc42)C3(C)C)n1` [Example 115], with 63.2 nM; and `CC1(C)[C@H]2CC[C@]1(c1cccc(CNC(=O)CO)n1)c1nnc(-c3c(F)cccc3F)cc12` [Example 116, N-((6-((5R,8S)-3-(2,6-difluorophenyl)-9,9-dimethyl-5,6,7,8-tetrahydro-5,8-methanocinnolin-8-yl)pyridin-2-yl)methyl)-2-hydroxyacetamide], with 15.2 nM; and `Cc1coc(-c2cncc([C@@]34CC[C@@H](c5cc(-c6c(F)cccc6F)nnc53)C4(C)C)n2)n1` [Example 117, 2-(6-((5R,8S)-3-(2,6-difluorophenyl)-9,9-dimethyl-5,6,7,8-tetrahydro-5,8-methanocinnolin-8-yl)pyrazin-2-yl)-4-methyloxazole], with 7.6 nM.
For the compound `Cc1ncc(-c2cncc([C@@]34CC[C@@H](c5cc(-c6c(F)cccc6F)nnc53)C4(C)C)n2)o1` [Example 118, 5-(6-((5R,8S)-3-(2,6-difluorophenyl)-9,9-dimethyl-5,6,7,8-tetrahydro-5,8-methanocinnolin-8-yl)pyrazin-2-yl)-2-methyloxazole], the IC50 turned out to be 13 nM.
On to `CC1(C)[C@H]2CC[C@]1(c1cncc(C(=O)NC(CO)CO)n1)c1nnc(-c3c(F)cccc3F)cc12` [Example 119, 6-((5R,8S)-3-(2,6-difluorophenyl)-9,9-dimethyl-5,6,7,8-tetrahydro-5,8-methanocinnolin-8-yl)-N-(1,3-dihydroxypropan-2-yl)pyrazine-2-carboxamide], for which the IC50 was determined as 58.9 nM.
The compound `Cc1nc(-c2cncc([C@@]34CC[C@@H](c5cc(-c6c(F)cccc6F)nnc53)C4(C)C)n2)co1` [Example 120, 4-(6-((5R,8S)-3-(2,6-difluorophenyl)-9,9-dimethyl-5,6,7,8-tetrahydro-5,8-methanocinnolin-8-yl)pyrazin-2-yl)-2-methyloxazole] displayed an IC50 of 8.6 nM. Compared with the last compound, the IC50 is about 6.8-fold lower.
Then `CC1(C)[C@H]2CC[C@]1(c1cncc(-c3nnc(CO)[nH]3)n1)c1nnc(-c3c(F)cccc3F)cc12` [Example 121, (5-(6-((5R,8S)-3-(2,6-difluorophenyl)-9,9-dimethyl-5,6,7,8-tetrahydro-5,8-methanocinnolin-8-yl)pyrazin-2-yl)-4H-1,2,4-triazol-3-yl)methanol], with 27.2 nM; and `CC1(C)[C@H]2CC[C@]1(c1ccnc(NC(CO)CO)n1)c1nnc(-c3c(F)cccc3F)cc12` [Example 122], with 38.6 nM.
Then `CC1(C)[C@H]2CC[C@]1(c1cncc(-c3n[nH]c(=O)[nH]3)n1)c1nnc(-c3c(F)cccc3F)cc12` [Example 123, 3-(6-((5R,8S)-3-(2,6-difluorophenyl)-9,9-dimethyl-5,6,7,8-tetrahydro-5,8-methanocinnolin-8-yl)pyrazin-2-yl)-1H-1,2,4-triazol-5(4H)-one], with 32.5 nM; and `CC1(C)[C@H]2CC[C@]1(c1cncc(C(=O)NCC3(O)CC3)n1)c1nnc(-c3c(F)cccc3F)cc12` [Example 124, 6-((5R,8S)-3-(2,6-difluorophenyl)-9,9-dimethyl-5,6,7,8-tetrahydro-5,8-methanocinnolin-8-yl)-N-((1-hydroxycyclopropyl)methyl)pyrazine-2-carboxamide], with 50.8 nM.
In turn, `CC1(C)[C@H]2CC[C@]1(c1cncc(-c3noc(=O)[nH]3)n1)c1nnc(-c3c(F)cccc3F)cc12` [Example 125, 3-(6-((5R,8S)-3-(2,6-difluorophenyl)-9,9-dimethyl-5,6,7,8-tetrahydro-5,8-methanocinnolin-8-yl)pyrazin-2-yl)-1,2,4-oxadiazol-5(4H)-one] gave an IC50 of 20.9 nM. This IC50 lies about 2.4-fold lower than the previous one.
As for `C[C@H](O)CNC(=O)c1cncc([C@@]23CC[C@@H](c4cc(-c5ccccc5F)nnc42)C3(C)C)n1` [Example 126, 6-((5R,8S)-3-(2-fluorophenyl)-9,9-dimethyl-5,6,7,8-tetrahydro-5,8-methanocinnolin-8-yl)-N-((S)-2-hydroxypropyl)pyrazine-2-carboxamide], the figure is 45.6 nM; as for `CC1(C)[C@H]2CC[C@]1(c1cnnc(N)n1)c1nnc(-c3c(F)cccc3F)cc12` [Example 127, 5-((5R,8S)-3-(2,6-difluorophenyl)-9,9-dimethyl-5,6,7,8-tetrahydro-5,8-methanocinnolin-8-yl)-1,2,4-triazin-3-amine], 109 nM.
As for `CC(C)(O)c1cncc([C@@]23CC[C@@H](c4cc(-c5c(F)cccc5F)nnc42)C3(C)C)n1` [Example 128, 2-(6-((5R,8S)-3-(2,6-difluorophenyl)-9,9-dimethyl-5,6,7,8-tetrahydro-5,8-methanocinnolin-8-yl)pyraizn-2-yl)propan-2-ol], the figure is 21.5 nM; as for `CC1(C)[C@H]2CC[C@]1(c1cncc(CNC(=O)CO)n1)c1nnc(-c3c(F)cccc3F)cc12` [Example 129, N-((6-((5R,8S)-3-(2,6-difluorophenyl)-9,9-dimethyl-5,6,7,8-tetrahydro-5,8-methanocinnolin-8-yl)pyrazin-2-yl)methyl)-2-hydroxyacetamide], 56.7 nM.
